Data as given in patent US20110038885A1, “CHEMOKINE ANALOGS” (priority 2007, published 2011).
Numbered stars: 1 amine (or outer) side, 2 acyl side, 3 side chain; on linkers, the order of the positions; unused ones are H or OH. Bridge positions count the residues as written; N and C are the ends. Square brackets hold non-standard residues; d marks the D form. Peptide text beside a SMILES is read from it. * marks the point of attachment. Benzoyl(4-Ph) = O=C(c1ccc(-c2ccccc2)cc1)*; Phenylacetyl(4-Me) = Cc1ccc(CC(=O)*)cc1; NH(CH2)8CO = O=C(CCCCCCCCN[*:1])[*:2]; Glutaryl = O=C(CCCC(=O)[*:2])[*:1]; Suc = O=C(CCC(=O)[*:2])[*:1]; X4 = O=C(c1cc2ccccc2[nH]1)*; hCys = N[C@@H](CCS)C(=O)O; Isobutyryl = CC(C)C(=O)*; Octanoyl = CCCCCCCC(=O)*; Orn = NCCC[C@H](N)C(=O)O; Dab = NCC[C@H](N)C(=O)O; Dap = NC[C@H](N)C(=O)O; Hexanoyl = CCCCCC(=O)*; Aoc = NCCCCCCCC(=O)O; Ahx = NCCCCCC(=O)O; Ava = NCCCCC(=O)O; βAla = NCCC(=O)O

test system: MCP-1; experiment: In vitro chemotaxis (trans-well migration) v MCP-1; format: cell-based, human
Protocol: To determine whether an agent inhibits a chemokine-induced activity, such as macrophage recruitment, varying amounts of the agent are mixed with cells in the presence of a known chemoattractant. For example, a range of known concentrations of an agent, e.g., a chemokine peptide, is incubated with a defined number (e.g., 10^4-10^6) of human THP-1 monocyte cells in individual wells of the top compartment of a trans-well plate. Chemokine, at a concentration known to cause significant migration of THP-1 cells in the trans-well migration assay, is placed in the lower compartment of a trans-well plate. Cells are then incubated at 37° C. for a period sufficient to allow migration, e.g., 4 hours. After incubation, the cells are gently removed from the top of the filter with a pipette, 20 μl of 20 mM EDTA in simple PBS is added into each top well, and incubated for 20 minutes at 4° C. The filter is carefully flushed with media using a gentle flow, and removed. A standard curve consisting of a two-fold dilution series of THP-1 cells (in 29 μl) is placed to accurately quantify the number of cells that have migrated. Migrated cells are stained with 3 μl of MTT stock dye solution which is added directly into each well (5 mg/ml in RPMI-1640 without phenol red) (Sigma Chemical Co., St. Louis, Mo., USA) and incubated at 37° C. for 4 hours. The media is carefully aspirated from each well, and the converted dye is solubilized by 20 μl of DMSO. Absorbance of converted dye is measured at a wavelength of 595 nm using an ELISA plate reader. The number of migrated cells in each well is then determined by interpolation of the standard curve (see also Imai et al., J. Biol. Chem., 272:15036, 1997). Any method suitable for counting cells can be used, for example, counting with a hemocytometer, incubation of the cells with MTT (see above), or FACS analysis. A negative control assay is also performed, using TGFβ or another non-chemokine chemoattractant (e.g., IL1β or TNFα). To assess whether the agent is cytotoxic, the same concentrations of agent are incubated with THP-1 cells. Agents which 1) are not cytotoxic at levels which inhibit migration, 2) are ineffective at inhibiting the negative control-induced migration, and 3) reduce or inhibit chemokine-induced THP-1 migration, are agents which fall within the scope of the invention.

| Structure (SMILES) | EC50 [µM] |
| --- | --- |
| CC[C@H](C)[C@@H]1NC(=O)[C@H](Cc2c[nH]c3ccccc23)NC(=O)[C@H](CCCCN)NC(=O)[C@@H](NC(=O)c2cc3ccccc3[nH]2)CSSC[C@@H](C(N)=O)NC(=O)[C@H](CCC(N)=O)NC1=O [Example 70, 2-Indolecarboxyl-c(Cys-Lys-Trp-Ile-Gln-Cys)-NH2] (X4-CKWIQC-NH2; disulfide 1-6) | 0.005 |
| CCCCCC(=O)N[C@H]1CSSC[C@@H](C(N)=O)NC(=O)[C@H](CCC(N)=O)NC(=O)[C@H]([C@@H](C)CC)NC(=O)[C@H](Cc2c[nH]c3ccccc23)NC(=O)[C@H](CCCCN)NC1=O [Example 81, n-Hexanoyl-c(Cys-Lys-Trp-Ile-Gln-Cys)-NH2] (Hexanoyl-CKWIQC-NH2; disulfide 1-6) | 0.005 |
| CC[C@H](C)[C@@H]1NC(=O)[C@H](Cc2c[nH]c3ccccc23)NC(=O)[C@H](CCCCN)NC(=O)[C@@H](NC(C)=O)CCC(=O)NCC[C@@H](C(N)=O)NC(=O)[C@H](CCC(N)=O)NC1=O [Example 114, Ac-c(Glu-Lys-Trp-Ile-Gln-Dab)-NH2] (Ac-EKWIQ[Dab]-NH2; lactam 1-6) | 0.008 |
| CC[C@H](C)[C@@H]1NC(=O)[C@H](Cc2c[nH]c3ccccc23)NC(=O)[C@H](CCCCN)NC(=O)[C@@H](NC(=O)C(C)C)CCC(=O)NCCC[C@@H](C(N)=O)NC(=O)[C@H](CCC(N)=O)NC1=O [Example 102, Isobutyryl-c(Glu-Lys-Trp-Ile-Gln-Orn)-NH2] (Isobutyryl-EKWIQ[Orn]-NH2; lactam 1-6) | 0.01 |
| CC[C@H](C)[C@@H]1NC(=O)[C@H](Cc2c[nH]c3ccccc23)NC(=O)[C@H](CCCCN)NC(=O)[C@@H](NC(=O)Cc2ccc(C)cc2)CSSC[C@@H](C(N)=O)NC(=O)[C@H](CCC(N)=O)NC1=O [Example 71, p-Tolylacetyl-c(Cys-Lys-Trp-Ile-Gln-Cys)-NH2] ({Phenylacetyl(4-Me)}-CKWIQC-NH2; disulfide 1-6) | 0.01 |
| CC[C@H](C)[C@@H]1NC(=O)[C@H](Cc2c[nH]c3ccccc23)NC(=O)[C@H](CCCCN)NC(=O)CCC(=O)NCCCC[C@@H](C(N)=O)NC(=O)[C@H](CCC(N)=O)NC1=O [Example 63, c(Succinyl-Lys-Trp-Ile-Gln-Lys)-NH2] (KWIQK-NH2; linker N-5 via Suc) | 0.066 |
| CC[C@H](C)[C@@H]1NC(=O)[C@H](Cc2c[nH]c3ccccc23)NC(=O)[C@H](CCCCN)NC(=O)CCC(=O)NC[C@@H](C(N)=O)NC(=O)[C@H](CCC(N)=O)NC1=O [Example 125, c(Succinyl-Lys-Trp-Ile-Gln-Dap)-NH2] (KWIQ[Dap]-NH2; linker N-5 via Suc) | 0.015 |
| CC[C@H](C)[C@@H]1NC(=O)[C@H](Cc2c[nH]c3ccccc23)NC(=O)[C@H](CCCCN)NC(=O)CCCCNC(=O)C[C@@H](C(N)=O)NC(=O)[C@H](CCC(N)=O)NC1=O [Example 90, c(Apn-Lys-Trp-Ile-Gln-Asp)-NH2] ([Ava]KWIQD-NH2; lactam N-6) | 0.007 |
| CC(C)[C@H](NC(=O)[C@@H](N)Cc1c[nH]c2ccccc12)C(=O)NC1CCC(=O)NC1=O (stereo partly drawn) [Example 181, Trp-Val-α-aminoglutaramide] | 0.02 |
| CC[C@H](C)[C@@H]1NC(=O)[C@H](Cc2c[nH]c3ccccc23)NC(=O)[C@H](CCCCN)NC(=O)CCCCCCCNC(=O)C[C@@H](C(N)=O)NC(=O)[C@H](CCC(N)=O)NC1=O [Example 95, c(Aoc-Lys-Trp-Ile-Gln-Asp)-NH2] ([Aoc]KWIQD-NH2; lactam N-6) | 0.02 |
| CC[C@H](C)[C@@H]1NC(=O)[C@H](Cc2c[nH]c3ccccc23)NC(=O)[C@H](CCCCN)NC(=O)[C@@H](NC(=O)c2ccc(-c3ccccc3)cc2)CSSC[C@@H](C(N)=O)NC(=O)[C@H](CCC(N)=O)NC1=O [Example 67, 4-Biphenylcarboxyl-c(Cys-Lys-Trp-Ile-Gln-Cys)-NH2] ({Benzoyl(4-Ph)}-CKWIQC-NH2; disulfide 1-6) | 0.008 |
| CC[C@H](C)[C@@H]1NC(=O)[C@H](Cc2c[nH]c3ccccc23)NC(=O)[C@H](CCCCN)NC(=O)CCCC(=O)NCC[C@@H](C(N)=O)NC(=O)[C@H](CCC(N)=O)NC1=O [Example 128, c(Glutaryl-Lys-Trp-Ile-Gln-Dab)-NH2] (KWIQ[Dab]-NH2; linker N-5 via Glutaryl) | 0.01 |
| NCCCC[C@@H]1NC(=O)CCNC(=O)C[C@@H](C(N)=O)NC(=O)[C@H](CCC(N)=O)NC(=O)[C@H](Cc2c[nH]c3ccccc23)NC1=O [Example 59, c((βA1a-Lys-Trp-Gln-Asp)-NH2] ([βAla]KWQD-NH2; lactam N-5) | 0.025 |
| CC[C@H](C)[C@@H]1NC(=O)[C@H](Cc2c[nH]c3ccccc23)NC(=O)[C@H](CCCCN)NC(=O)CCCCCNC(=O)CC[C@@H](C(N)=O)NC(=O)[C@H](CCC(N)=O)NC1=O [Example 92, c(Ahx-Lys-Trp-Ile-Gln-Glu)-NH2] ([Ahx]KWIQE-NH2; lactam N-6) | 0.005 |
| CC[C@H](C)[C@@H]1NC(=O)[C@H](Cc2c[nH]c3ccccc23)NC(=O)[C@H](CCCCN)NC(=O)CSCC[C@@H](C(N)=O)NC(=O)[C@H](CCC(N)=O)NC1=O [Example 4, (Ac=Lys=Trp=Ile=Gln=hCyc)=NH2] ({CH2CO}-KWIQ[hCys]-NH2; thioether N-5) | 0.02 |
| CC[C@H](C)[C@@H]1NC(=O)[C@H](Cc2c[nH]c3ccccc23)NC(=O)[C@H](CCCCN)NC(=O)CNC(=O)CC[C@@H](C(N)=O)NC(=O)[C@H](CCC(N)=O)NC1=O [Example 88, c(Gly-Lys-Trp-Ile-Gln-Glu)-NH2] (GKWIQE-NH2; lactam N-6) | 0.009 |
| CC[C@H](C)[C@@H]1NC(=O)[C@H](Cc2c[nH]c3ccccc23)NC(=O)[C@H](CCCCN)NC(=O)CCCCCCCCNC(=O)C[C@@H](C(N)=O)NC(=O)[C@H](CCC(N)=O)NC1=O [Example 97, c(Anc-Lys-Trp-Ile-Gln-Asp)-NH2] ([NH(CH2)8CO]KWIQD-NH2; lactam N-6) | 0.015 |
| CC[C@H](C)[C@@H]1NC(=O)[C@H](Cc2c[nH]c3ccccc23)NC(=O)[C@H](CCCCN)NC(=O)[C@@H](NC(C)=O)CCNC(=O)CC[C@@H](C(N)=O)NC(=O)[C@H](CCC(N)=O)NC1=O [Example 122, Ac-c(Dab-Lys-Trp-Ile-Gln-Glu)-NH2] (Ac-[Dab]KWIQE-NH2; lactam 1-6) | 0.01 |
| CC(C)(C)OC(=O)N1Cc2ccccc2C[C@H]1C(=O)NCCC(=O)NC1CCC(=O)NC1=O (stereo partly drawn) [Example 174, BOC-Tic-βAla-α-aminoglutaramide] | 0.2 |
| CC[C@H](C)[C@@H]1NC(=O)[C@H](Cc2c[nH]c3ccccc23)NC(=O)[C@H](CCCCN)NC(=O)[C@@H](NC(C)=O)CC(=O)NC[C@@H](C(N)=O)NC(=O)[C@H](CCC(N)=O)NC1=O [Example 110, Ac-c(Asp-Lys-Trp-Ile-Gln-Dap)-NH2] (Ac-DKWIQ[Dap]-NH2; lactam 1-6) | 0.008 |
| CC[C@H](C)[C@@H]1NC(=O)[C@H](Cc2c[nH]c3ccccc23)NC(=O)[C@H](CCCCN)NC(=O)[C@@H](NC(=O)C(C)C)CCCNC(=O)CC[C@@H](C(N)=O)NC(=O)[C@H](CCC(N)=O)NC1=O [Example 108, Isobutyryl-c(Orn-Lys-Trp-Ile-Gln-Glu)-NH2] (Isobutyryl-[Orn]KWIQE-NH2; lactam 1-6) | 0.008 |
| CC[C@H](C)[C@@H]1NC(=O)[C@H](Cc2c[nH]c3ccccc23)NC(=O)[C@H](CCCCN)NC(=O)CCCC(=O)NCCCC[C@@H](C(N)=O)NC(=O)[C@H](CCC(N)=O)NC1=O [Example 129, c(Glutaryl-Lys-Trp-Ile-Gln-Lys)-NH2] (KWIQK-NH2; linker N-5 via Glutaryl) | 0.4 |
| CC[C@H](C)[C@@H]1NC(=O)[C@H](Cc2c[nH]c3ccccc23)NC(=O)[C@H](CCCCN)NC(=O)CCCC(=O)NCCC[C@@H](C(N)=O)NC(=O)[C@H](CCC(N)=O)NC1=O [Example 8, c(Glutaryl-Lys-Trp-Ile-Gln-Orn)-NH2] (KWIQ[Orn]-NH2; linker N-5 via Glutaryl) | 0.005 |
| CC[C@H](C)[C@H](NC(=O)[C@H](Cc1c[nH]c2ccccc12)NC(=O)[C@H](CCCCN)NC(=O)[C@H](CCCN)NC(=O)C(C)C)C(=O)N[C@@H](CCC(N)=O)C(=O)N[C@@H](CC(=O)O)C(N)=O [Example 202, Isobutyryl-Orn-Lys-Trp-Ile-Gln-Asp-NH2] (Isobutyryl-[Orn]KWIQD-NH2) | 0.008 |
| CCCCCCCC(=O)N[C@H]1CSSC[C@@H](C(N)=O)NC(=O)[C@H](CCC(N)=O)NC(=O)[C@H]([C@@H](C)CC)NC(=O)[C@H](Cc2c[nH]c3ccccc23)NC(=O)[C@H](CCCCN)NC1=O [Example 82, Octanoyl-c(Cys-Lys-Trp-Ile-Gln-Cys)-NH2] (Octanoyl-CKWIQC-NH2; disulfide 1-6) | 0.025 |
| CC[C@H](C)[C@@H]1NC(=O)[C@H](Cc2c[nH]c3ccccc23)NC(=O)[C@H](CCCCN)NC(=O)[C@@H](NC(C)=O)CCCNC(=O)C[C@@H](C(N)=O)NC(=O)[C@H](CCC(N)=O)NC1=O [Example 119, Ac-c(Orn-Lys-Trp-Ile-Gln-Asp)-NH2] (Ac-[Orn]KWIQD-NH2; lactam 1-6) | 0.008 |
